These results are taken from ChEMBL document CHEMBL2331468, “Antimalarial activities of 6-iodouridine and its prodrugs and potential for combination therapy” (J Med Chem, 2013).

Data set [1] relates to Plasmodium berghei. Nature of the data set: Antimalarial activity against Plasmodium berghei infected in mouse assessed as reduction of parasitemia at 8 mg/dose, ip on days 4 to 7 relative to untreated control. It counts as functional, organism-based.
Data set [2] concerns Plasmodium falciparum. Nature of the data set: Antimalarial activity against mature-stage Plasmodium falciparum assessed as decrease in viability at 4 uM incubated for 3 hrs followed by compound washout measured after 48 hrs by SYBR-Green staining-based fluorescence analysis relative to untreated control. It counts as functional, organism-based.
In data set [3] the test system is CHO. Nature of the data set: Cytotoxicity against CHO cells at 5 to 250 uM after 48 hrs by MTT assay in presence of uridine. It counts as cell-based, Cricetulus griseus. Conditions: chinese hamster.
Data set [4] is described as follows: Selectivity index for Plasmodium falciparum over Plasmodium berghei in presence of uridine. It counts as functional.
Data set [5] has as its system Mus musculus. The data set can be described thus: Toxicity against BALB/c mouse infected with Plasmodium berghei assessed as loss in body weight at 6 mg/dose, ip in presence of uridine. The class given is organism-based. As to conditions: in vivo.
The test system of data set [6] is Mus musculus. Nature of the data set: Toxicity against BALB/c mouse infected with Plasmodium berghei assessed as loss in body weight at 12 mg/dose, ip in presence of uridine. It counts as organism-based. As to conditions: in vivo.
The subject of data set [7] is Mus musculus. The data set can be described thus: Toxicity against BALB/c mouse infected with Plasmodium berghei assessed as loss in body weight at 3 mg/dose, ip in presence of uridine. Conditions: in vivo. It counts as organism-based.
The test system of data set [8] is Plasmodium berghei. Nature of the data set: Antimalarial activity against Plasmodium berghei infected in BALB/c mouse assessed as reduction in parasitemia at 3 mg/dose, ip on days 5 to 7. It counts as functional, organism-based.
For data set [9], the system named is Plasmodium berghei. The data set can be described thus: Antimalarial activity against Plasmodium berghei infected in BALB/c mouse assessed as reduction in parasitemia at 3 mg/dose, ip on days 5 to 7 in presence of uridine. It counts as functional, organism-based.
For data set [10], the system named is Plasmodium berghei. Nature of the data set: Antimalarial activity against Plasmodium berghei infected in BALB/c mouse assessed as reduction in parasitemia at 6 to 12 mg/dose, ip on days 5 to 7. It counts as functional, organism-based.
In data set [11] the test system is Plasmodium berghei. The data set can be described thus: Antimalarial activity against Plasmodium berghei infected in BALB/c mouse assessed as reduction in parasitemia at 6 to 12 mg/dose, ip on days 5 to 7 in presence of uridine. It counts as functional, organism-based.
Data set [12] relates to Plasmodium chabaudi. The data set can be described thus: Antimalarial activity against Plasmodium chabaudi chabaudi infected in BALB/c mouse assessed as reduction in parasitemia at 6 mg/day administered as infusion on days 4 to 6 measured on days 10 to 13. The class given is functional, organism-based.
The test system of data set [13] is Plasmodium chabaudi. Nature of the data set: Antimalarial activity against Plasmodium chabaudi chabaudi infected in BALB/c mouse assessed as reduction in parasitemia at 6 mg/day administered as infusion on days 4 to 6 measured on days 10 to 13 in presence of uridine. The class given is functional, organism-based.
The subject of data set [14] is Plasmodium berghei. The data set can be described thus: Antimalarial activity against Plasmodium berghei infected in mouse assessed as reduction of parasitemia at 50 ug/dose, ip on days 4 to 7. The class given is functional, organism-based.
Data set [15] concerns Plasmodium chabaudi. The data set can be described thus: Antimalarial activity against Plasmodium chabaudi chabaudi infected in mouse at 6 mg/day administered as infusion on days 4 to 6 relative to untreated control. It counts as functional, organism-based.
In data set [16] the test system is Plasmodium falciparum. Nature of the data set: Antimalarial activity against ring-stage Plasmodium falciparum assessed as decrease in viability at 4 uM incubated for 3 hrs followed by compound washout measured after 48 hrs by SYBR-Green staining-based fluorescence analysis relative to untreated control. It counts as functional, organism-based.
A short description of data set [17]: Hemolytic activity against human erythrocytes at 250 uM. As to conditions: erythrocyte. The class given is ADME, cell-based.
Data set [18] has as its system C32. Nature of the data set: Cytotoxicity against human C32 cells after 48 hrs by MTT assay in presence of uridine. It counts as cell-based. Conditions: c32, 48 h.
Data set [19] concerns Plasmodium falciparum. Nature of the data set: Growth inhibition of Plasmodium falciparum at >250 uM after 72 hrs by lactate dehydrogenase assay in absence of uridine. It counts as functional, organism-based.
The nature of data set [20]: Therapeutic index, ratio of IC50 for CHO cells to IC50 for Plasmodium falciparum in absence of uridine. The class given is cell-based. Conditions: hamster, CHO cells versus Plasmodium falciparum; read-out: Ratio IC50.
Data set [21] concerns Plasmodium falciparum. Nature of the data set: Antimalarial activity against Plasmodium falciparum after 72 hrs by lactate dehydrogenase assay in absence of uridine. It counts as functional, organism-based.
A short description of data set [22]: Therapeutic index, ratio of IC50 for CHO cells to IC50 for Plasmodium falciparum in presence of uridine. The class given is cell-based. As to conditions: hamster, CHO cells versus Plasmodium falciparum; read-out: Ratio IC50.
In data set [23] the test system is Plasmodium falciparum. Nature of the data set: Antimalarial activity against Plasmodium falciparum after 72 hrs by lactate dehydrogenase assay in presence of uridine. The class given is functional, organism-based.
The subject of data set [24] is CHO. Nature of the data set: Cytotoxicity against CHO cells assessed as growth inhibition after 48 hrs by MTT assay in absence of uridine. The class given is cell-based. As to conditions: Cricetulus griseus.
The test system of data set [25] is Plasmodium chabaudi. The data set can be described thus: Antimalarial activity against Plasmodium chabaudi chabaudi infected in ip dosed BALB/C mouse. It counts as functional, organism-based.
For data set [26], the system named is Plasmodium falciparum. The data set can be described thus: Antimalarial activity against Plasmodium falciparum FCR3 after 72 hrs by lactate dehydrogenase assay. The class given is functional. As to conditions: FCR-3/Gambia.
Data set [27] relates to Plasmodium berghei. Nature of the data set: Antimalarial activity against Plasmodium berghei infected in ip dosed BALB/C mouse. It counts as functional, organism-based.
Data set [28] relates to Plasmodium falciparum. Nature of the data set: Antimalarial activity against chloroquine/multidrug-resistant Plasmodium falciparum SB after 72 hrs by lactate dehydrogenase assay. The class given is functional, organism-based.
Data set [29] has as its system Plasmodium falciparum. Nature of the data set: Antimalarial activity against chloroquine/multidrug-resistant Plasmodium falciparum MB after 72 hrs by lactate dehydrogenase assay. It counts as functional, organism-based.
The test system of data set [30] is Plasmodium falciparum. Nature of the data set: Antimalarial activity against chloroquine/mefloquine-resistant Plasmodium falciparum KC98358 after 72 hrs by lactate dehydrogenase assay. It counts as functional, organism-based. Conditions: KC98358, 72 h.
Data set [31] deals with Plasmodium falciparum. The data set can be described thus: Antimalarial activity against chloroquine/mefloquine-resistant Plasmodium falciparum KC98 after 72 hrs by lactate dehydrogenase assay. As to conditions: KC98, 72 h. It counts as functional, organism-based.
Data set [32] has as its system Plasmodium falciparum. The data set can be described thus: Antimalarial activity against chloroquine-resistant Plasmodium falciparum ItG after 72 hrs by lactate dehydrogenase assay. The class given is functional, organism-based.
Data set [33] has as its system Plasmodium falciparum. The data set can be described thus: Antimalarial activity against Plasmodium falciparum 3D7 after 72 hrs by lactate dehydrogenase assay. It counts as functional, organism-based. As to conditions: 3D7, 72 h.
In data set [34] the test system is Plasmodium chabaudi. Nature of the data set: Antimalarial activity against Plasmodium chabaudi chabaudi infected in mouse assessed as reduction in parasitemia at 7.1 mg/day administered as infusion on days 4 to 6. The class given is functional, organism-based.
Data set [35] concerns Plasmodium chabaudi. Nature of the data set: Antimalarial activity against Plasmodium chabaudi chabaudi infected in mouse assessed as reduction in parasitemia at 6.9 mg/day administered as infusion on days 4 to 6. It counts as functional, organism-based.

Molecules are shown by their SMILES. Calls of active or inactive are those of the source. No cut-off for these calls is given here.

On to `CC[C@H]1OC(=O)[C@H](C)[C@@H](O[C@H]2C[C@@](C)(OC)[C@@H](O)[C@H](C)O2)[C@H](C)[C@@H](O[C@@H]2O[C@H](C)C[C@H](N(C)C)[C@H]2O)[C@](C)(O)C[C@@H](C)CN(C)[C@H](C)[C@@H](O)[C@]1(C)O`, for which the result in data set [1] was inactive.
Regarding `O=c1cc(I)n([C@@H]2O[C@H](CO)[C@@H](O)[C@H]2O)c(=O)[nH]1`, the outcome in data set [2], in data set [12] and in data set [15] was inactive. In addition, the Activity entry in [3] was “Toxic”; in data set [5], “Toxic”; in data set [6], “Toxic”; in data set [7], “Non-toxic”; in data set [17], “Toxic”; in [18], “Non-toxic”. Further, the Selectivity Index in [4] was 2. For the same compound, the outcome in data set [8], in data set [9], in [10], in [11], in data set [13] and in [14] was Active. The outcome in [16] was Active. The “growth inhibition (GI)” value in data set [19] was “Active”. Moreover, the selectivity ratio in data set [20] was determined as 38; in data set [22] it was 35. Also, the half-maximal inhibitory concentration (IC50) amounted to 13.2 µM in data set [21]; 11.2 µM in data set [23]; 491 µM in [24]; 300 µM in data set [25]; 56.5 µM in data set [26]; 303 µM in [27]. Moreover, the IC50 is 29.1 µM in data set [28]; 18.7 µM in data set [29]; 1.4 µM in data set [30]; 2.3 µM in data set [31]; 1.2 µM in [32]; 27 µM in [33].
Regarding `CCC(=O)OC[C@H]1O[C@@H](n2c(I)cc(=O)[nH]c2=O)[C@H](O)[C@@H]1O`, the result in [34] was inactive. Moreover, the midpoint of inhibition in [26], the IC50, lay at 85 µM.
With `C[n+]1cnn(CCCCCCCCCCCCn2c[n+](C)cn2)c1`, in data set [27], the result was Active.
With `CCCC(=O)OC[C@H]1O[C@@H](n2c(I)cc(=O)[nH]c2=O)[C@H](O)[C@@H]1O`, in data set [35], the outcome was Active. Besides, half-maximal inhibition in data set [26] (IC50) required 166 µM.
